Entries after “also recorded” stand apart in the source; their conditions may differ.
What was measured:
[1] = system: xenograft models of Hodgkin disease; conditions: SCID mouse xenograft models of Hodgkin disease; cited from earlier work
CD30+ cell lines = conditions: in vitro; cited from earlier work
[2] = system: CD30+ inducible T regulatory cells (iTregs); experiment: In vitro depletion of CD30+ inducible T regulatory cells (flow cytometry live cell counts); type: cell-based, human; conditions: iTregs from normal donors, CD3/CD28 beads 1:4 and 10 ng/ml IL-2, 4-5 days, titration of ADC; compared to non-binding control ADC hIgG-7782; FIG. 1A
Description: The ability of the anti-CD30 antibody-drug conjugate SGN-CD30C to deplete CD30+T regulatory (Tregs) was assessed in vitro. Inducible T regulatory cells (iTregs) were differentiated from cryopreserved CD4^+ T cells of two normal donors (Cellero, Bothell, Washington, Cat #1023) in X-Vivo 15 media (Lonza, Cat #04-418Q) supplemented with 50 ng/ml TGFβ1 (R&D, cat #100-B), 50 ng/ml IL-2 (R&D, Cat #202-IL/CF) and a 1:100 dilution of Lipid Mixture 1 (Sigma, Cat #L0288-100 ml) with CD3/CD28 beads (Miltenyi, Cat #130-095-345) at a 1:20 bead:cell ratio for 6 days at 37° C. and 5% CO2, followed by 2 days resting in X-Vivo 15 media only. Differentiated iTregs were then immunophenotyped prior to in vitro cytotoxicity assays with a viability dye and fluorescently labeled anti-human CD3, CD4, CD8, CD25 and Foxp3 (Biolegend and BD Pharmingen), and analyzed on an Attune NxT Flow Cytometer (Life Technologies). Following differentiation, the iTreg populations were 38% and 53% CD25^+FoxP3^+. Inducible Tregs from 3 additional normal donors were also ordered directly from Cellero (Cat #1042). […]

[3] = system: CD4+CD127lowCD25+ peripheral blood Tregs (CD30+); experiment: In vitro depletion of CD30+ peripheral blood T regulatory cells (flow cytometry live cell counts); type: cell-based, human; conditions: peripheral blood Tregs from 2 normal donors, CD3/CD28 beads 1:4 and 10 ng/ml IL-2, 4-5 days, titration of ADC; compared to non-binding control ADC hIgG-7782; FIG. 1B
Description: Cryopreserved inducible Tregs from 5 normal donors and CD4^+CD127^lowCD25^+ peripheral blood Tregs from 2 normal donors (Cellero and Stem Cell Technologies) were washed and resuspended in RPMI 1640 media containing 10% FBS and put into culture with CD3/CD28 beads at a 1:4 bead:cell ratio and 10 ng/ml IL-2 for 4-5 days in a 96-well round bottom plate at 37° C. and 5% CO2 in a titration of cAC10-7782 or non-specific control hIgG-7782. At the end of the incubation, cells were washed and stained with a Zombie Aqua viability dye and CD30 PE (Biolegend), and both total and CD30^+ live cell counts were determined using an Attune Nxt Flow cytometer. Untreated inducible Tregs were 37-80% CD30^+ and peripheral Tregs were 33-68% CD30^+ at the conclusion of the assay.
Cell counts are shown as the percent of untreated control.

With “cAC10: chimeric IgG1 monoclonal antibody that specifically binds CD30” as the molecule, how does the antitumor activity [1] read?
The antitumor activity was “pronounced antitumor activity”.

What about the “growth arrest of CD30+ cell lines” value (CD30+ cell lines) of the same molecule?
Its value is “induces growth arrest”.

B1: SGN-CD30C: antibody-drug conjugate of Formula (IC): L is anti-CD30 antibody brentuximab, y is 1, z is 8, p is 8 (conjugate)
VH: QIQLQQSGPEVVKPGASVKISCKASGYTFTDYYITWVKQKPGQGLEWIGWIYPGSGNTKYNEKFKGKATLTVDTSSSTAFMQLSSLTSEDTAVYFCANYGNYWFAYWGQGTQVTVSA
VL: DIVLTQSPASLAVSLGQRATISCKASQSVDFDGDSYMNWYQQKPGQPPKVLIYAASNLESGIPARFSGSGSGTDFTLNIHPVEEEDAATYYCQQSNEDPWTFGGGTKLEIK
What does the source list for B1?
total CD30+ iTreg count (percent of untreated control) [2]: depleted; also recorded: dose-dependent reduction; peripheral blood CD30+ Treg count (percent of untreated control) [3]: depleted; also recorded: dose-dependent reduction

— patent US20240076394A1, “MODULATING THE IMMUNE RESPONSE USING ANTI-CD30 ANTIBODY-DRUG CONJUGATES” (Seagen Inc., priority 2020, published 2024)
